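Protocol summary: plate cells (96-well), add compound at 5 concentrations, incubate 48 h, interpolate endpoints linearly. Abbreviation: GI50, concentration required for 50% inhibition of growth. At the TGI there is no net growth.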 Some results are limits rather than exact numbers.

Drawing on PubChem BioAssay (NCI), this text covers GI50 and TGI for nine molecules.

Some test systems named below: A498 renal; CAKI-1 renal; HCC-2998 colon; M14 melanoma; MCF7 breast; NCI/ADR-RES ovarian; UACC-257 melanoma; UACC-62 melanoma; MOLT-4 leukemia; SK-MEL-28 melanoma.
What all share (assay): NCI tumour cell line growth inhibition, 48 h

Take `CC1NC(=O)C2=C1C(=O)NC(=O)C2` (stereo not given): the GI50 in the experiment on A498 renal, in the experiment with CAKI-1 renal, in the experiment on HCC-2998 colon, in the experiment with M14 melanoma, in the experiment with MCF7 breast and in the experiment with NCI/ADR-RES ovarian was over 100 µM throughout. The GI50 in the experiment on UACC-257 melanoma and in the experiment on UACC-62 melanoma was over 100 µM each time. In addition, the TGI in the experiment on A498 renal, in the experiment on CAKI-1 renal, with HCC-2998 colon, with M14 melanoma, with MCF7 breast and in the experiment on NCI/ADR-RES ovarian was over 100 µM throughout. Moreover, the TGI with UACC-257 melanoma and in the experiment on UACC-62 melanoma was over 100 µM each time.
Consider `COc1ccc(/C=C2/SC(Nc3nc(-c4nc(NC5=NC(=O)/C(=C\c6ccc(OC)cc6)S5)sc4C)c(C)s3)=NC2=O)cc1`, for which the GI50 in the experiment on A498 renal was 0.806 µM; in the experiment on CAKI-1 renal, 0.368 µM; in the experiment with HCC-2998 colon, 0.82 µM; with M14 melanoma, 0.499 µM; in the experiment on MCF7 breast it was 1.59 µM; with MOLT-4 leukemia, 8.87 µM. Besides, the GI50 in the experiment with NCI/ADR-RES ovarian is 0.648 µM; in the experiment with UACC-257 melanoma, 2.22 µM; with UACC-62 melanoma, 0.32 µM. The TGI is 4.22 µM with A498 renal; 3.16 µM with CAKI-1 renal; 3.66 µM in the experiment with HCC-2998 colon; 2.36 µM in the experiment on M14 melanoma; over 30.7 µM in the experiment on MCF7 breast; over 50 µM in the experiment on MOLT-4 leukemia. Besides, the TGI was determined as 4.39 µM in the experiment with NCI/ADR-RES ovarian, 15.4 µM with UACC-257 melanoma and 6.62 µM in the experiment with UACC-62 melanoma.
Consider `c1ccc(CNCCN(CCNCc2ccccn2)Cc2ccc3ccccc3c2)nc1`, for which the GI50 in the experiment with A498 renal was 1.86 µM; in the experiment with HCC-2998 colon it was 1.83 µM; in the experiment on M14 melanoma it was 1.64 µM; in the experiment on MCF7 breast it was 2.86 µM; in the experiment with MOLT-4 leukemia it was 2.58 µM; in the experiment on NCI/ADR-RES ovarian, 2.4 µM. For the same molecule, the GI50 was 1.75 µM in the experiment with SK-MEL-28 melanoma, 2.16 µM with UACC-257 melanoma and 2.17 µM in the experiment on UACC-62 melanoma. Further, the TGI was 3.71 µM with A498 renal; 3.39 µM in the experiment with HCC-2998 colon; 3.39 µM in the experiment on M14 melanoma; 10.5 µM with MCF7 breast; 7.5 µM in the experiment on MOLT-4 leukemia; 6.96 µM in the experiment on NCI/ADR-RES ovarian. Besides, the TGI in the experiment with SK-MEL-28 melanoma was determined as 3.36 µM; in the experiment with UACC-257 melanoma, 4.69 µM; in the experiment with UACC-62 melanoma it was 4.7 µM.
In the case of `Cc1cc2c(-c3nc4ccccn4c3N)c(O)c(O)cc2c(O)c1-c1c(C)cc2c(-c3nc4ccccn4c3N)c(O)c(O)cc2c1O`, the GI50 in the experiment on HCC-2998 colon was 1.59 µM; in the experiment on M14 melanoma, 1.18 µM; in the experiment with MCF7 breast, 0.606 µM; in the experiment on MOLT-4 leukemia it was 1.01 µM; in the experiment with NCI/ADR-RES ovarian it was 4.49 µM; in the experiment on SK-MEL-28 melanoma, 1.16 µM. Moreover, the GI50 is 2.9 µM with UACC-257 melanoma and 0.723 µM with UACC-62 melanoma. In addition, the TGI with HCC-2998 colon, with M14 melanoma, with MCF7 breast, with MOLT-4 leukemia, in the experiment with NCI/ADR-RES ovarian and with SK-MEL-28 melanoma was over 25 µM in each case. The values for the TGI with UACC-257 melanoma and with UACC-62 melanoma were over 25 µM and 7.05 µM, respectively.
Take `N#Cc1cnc(Nc2cc(NC[C@H]3CNCCO3)c(C(F)(F)F)cn2)cn1`: the GI50 in the experiment on A498 renal is 0.462 µM; with HCC-2998 colon it was 6.84 µM; in the experiment with M14 melanoma it was 0.388 µM; with MCF7 breast it was 0.639 µM; in the experiment on MOLT-4 leukemia, 3.61 µM; in the experiment on NCI/ADR-RES ovarian, 1.73 µM. Further, the figures for the GI50 in the experiment with SK-MEL-28 melanoma, in the experiment on UACC-257 melanoma and with UACC-62 melanoma were 16.3 µM, 19.3 µM and 5.17 µM, respectively. In addition, the TGI with A498 renal was determined as 18 µM; with HCC-2998 colon it was 30.2 µM; with M14 melanoma, 16.7 µM; in the experiment with MCF7 breast, 23 µM; in the experiment with MOLT-4 leukemia, 55.2 µM; in the experiment with NCI/ADR-RES ovarian, 84.5 µM. For the same molecule, the results for the TGI in the experiment with SK-MEL-28 melanoma, in the experiment with UACC-257 melanoma and in the experiment on UACC-62 melanoma were 46.5 µM, 45.8 µM and 25.1 µM, respectively.
Regarding `COc1cccc(Nc2nc3ccccc3c3occc23)c1`, the GI50 is 4.19 µM in the experiment with CAKI-1 renal; 8.9 µM in the experiment on HCC-2998 colon; 13.9 µM in the experiment with M14 melanoma; 43.7 µM in the experiment on MCF7 breast; 17.9 µM in the experiment with NCI/ADR-RES ovarian; 14.5 µM in the experiment with SK-MEL-28 melanoma. Further, the GI50 in the experiment on UACC-257 melanoma was 13.2 µM; in the experiment on UACC-62 melanoma, 9.37 µM. Further, the TGI is 15.6 µM in the experiment with CAKI-1 renal; 21.8 µM with HCC-2998 colon; 28.6 µM in the experiment with M14 melanoma; over 100 µM with MCF7 breast; 32.1 µM with NCI/ADR-RES ovarian; 29.9 µM in the experiment with SK-MEL-28 melanoma. Moreover, the values for the TGI with UACC-257 melanoma and in the experiment with UACC-62 melanoma were 26.8 µM and 24.6 µM, respectively.
Regarding `O=C(c1ccc(Cl)cc1)C(O)c1ccc(Cl)cc1` (stereo not given), the TGI in the experiment on CAKI-1 renal was over 100 µM; in the experiment with HCC-2998 colon, over 100 µM; in the experiment with M14 melanoma it was over 100 µM; in the experiment with MCF7 breast it was over 100 µM; in the experiment with MOLT-4 leukemia, 75.6 µM; in the experiment on NCI/ADR-RES ovarian, over 100 µM. The TGI with SK-MEL-28 melanoma, in the experiment on UACC-257 melanoma and with UACC-62 melanoma was over 100 µM throughout.
In the case of `CN1CCN(C(=O)COc2ccc(/C=C3\CC4C5CC=C6CC(Cl)CCC6(C)C5CCC4(C)C3=O)cc2)CC1` (stereo not given), the GI50 with A498 renal, in the experiment with CAKI-1 renal, with HCC-2998 colon, with M14 melanoma, in the experiment with MCF7 breast and in the experiment on NCI/ADR-RES ovarian was over 100 µM throughout. In addition, the GI50 in the experiment with SK-MEL-28 melanoma and in the experiment on UACC-62 melanoma was over 100 µM in each case. In addition, the TGI with A498 renal, in the experiment on CAKI-1 renal, in the experiment on HCC-2998 colon, in the experiment with M14 melanoma, in the experiment with MCF7 breast and with NCI/ADR-RES ovarian was over 100 µM throughout. Also, the TGI in the experiment with SK-MEL-28 melanoma and in the experiment on UACC-62 melanoma was over 100 µM each time.
As to `O=c1c(Cl)c(Cl)cnn1CCCl`, the TGI in the experiment on A498 renal was 29 µM; with CAKI-1 renal it was 6.53 µM; with HCC-2998 colon it was 9.39 µM; in the experiment with M14 melanoma, 11.3 µM; with MOLT-4 leukemia it was 7.46 µM; in the experiment with SK-MEL-28 melanoma, 4.99 µM. The TGI with UACC-257 melanoma stood at 6.58 µM; in the experiment on UACC-62 melanoma, 8.25 µM.
